For the assay, the system named is M. tuberculosis H37Rv growth inhibition with meropenem. In words: dose response, H37Rv, with and without meropenem (AID 434987).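 Note: growth over 7 days at 37 °C before Alamar Blue read on day 9.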
Setting [1] is: M. tuberculosis H37Rv growth inhibition, measured here: IC50 without meropenem.
[2] abbreviates: M. tuberculosis H37Rv growth inhibition, measured here: IC90 without meropenem.
Where [3] appears, read: measured here: IC90 with meropenem.

The structures appear in SMILES notation. Activity calls are given as the source filed them. The rule behind the calls is not given here. Bounds are passed on as bounds.

What is called IC50 is the concentration that gives 50% inhibition. The IC90 is the point of the concentration-response curve where the effect stands at 90%. A lower IC90 goes with greater potency. On to `COc1cc(NC(=O)c2ccccc2)c(OC)cc1NC(=O)CN1CCOCC1`, for which the IC50 was 14.5 µM (inactive). The half-inhibitory concentration (IC50) under setting [1] is 32.1 µM. Under setting [2], this compound came in with an IC90 of over 100 µM. For the same compound, the concentration for an effect of 90% (IC90) under setting [3] stood at 69.2 µM.
In the same order, the values of `COc1ccc(-c2c(-c3ccsc3)oc3ccc(N4CCOCC4)cc23)cc1` are > 100 µM (inactive), over 100 µM, over 100 µM and over 100 µM.
In the same order, the values of `Cn1cc(C(=O)N/N=C/C(Br)=C\c2ccccc2)ccc1=O` are > 100 µM (inactive), over 100 µM, over 100 µM and over 100 µM.
For `Nc1c(C(=O)N2CCCC2)sc2nc3c(cc12)CCCCCC3`, the half-inhibitory concentration (IC50) was 19.4 µM. This compound also returned an IC50 under setting [1] of 92.2 µM. Besides, under setting [2], the IC90 is over 100 µM. The compound further showed an IC90 under setting [3] of over 100 µM.
Regarding `CONC(=O)c1cc(OCC(F)(F)F)ccc1OCC(F)(F)F`, the IC50 was > 100 µM (inactive). The same compound registered an IC50 under setting [1] of over 100 µM. Besides, the IC90 under setting [2] is over 100 µM. Moreover, the 90% effect concentration (IC90) under setting [3] was over 100 µM.
Turning to `COc1cc(NC(=O)c2ccccc2Cl)ccc1NC(=O)c1ccco1`, the IC50 was 19.6 µM (inactive). In addition, the IC50 under setting [1] came out at 32.9 µM. Under setting [2], this compound showed an IC90 of over 50 µM. Further, the 90% effect concentration (IC90) under setting [3] was over 25 µM.
Consider `CN1CCN(S(=O)(=O)c2ccc(NC(=O)c3ccc(Br)s3)cc2)CC1`, for which the IC50 was 74.7 µM (inactive). This compound also displayed a concentration for half-maximal inhibition (IC50) under setting [1] of over 100 µM. Under setting [2], this compound displayed a 90% effect concentration (IC90) of over 100 µM. The compound further displayed an IC90 under setting [3] of over 100 µM.
Regarding `O=C(NC1CCCCCCC1)c1ccc(Br)cc1`, the IC50 was > 100 µM (inactive). In addition, under setting [1], the IC50 was over 100 µM. Also, under setting [2], the IC90 is over 100 µM. The same compound had a 90% effect concentration (IC90) under setting [3] of over 100 µM.
On to `CCC(=O)N1CCN(c2ccc(NC(=S)NC(=O)c3ccc(OC)c([N+](=O)[O-])c3)cc2)CC1`, for which the IC50 was 40.2 µM (inactive). Besides, the IC50 under setting [1] amounted to 79.6 µM. The compound also showed a 90% effect concentration (IC90) under setting [2] of over 100 µM. Also, the IC90 under setting [3] came out at 67.8 µM.
As for `CC(C)(C)NCCCOc1ccc(Cl)cc1C(C)(C)C`, the IC50 was 24.8 µM (inactive). This compound registered an IC50 under setting [1] of 45.9 µM. This compound gave an IC90 under setting [2] of 51.6 µM. Also, under setting [3], the concentration for an effect of 90% (IC90) amounted to 26.9 µM.
For `C#CCOc1c(Cl)cc(/C=N/NC(N)=S)cc1OCC`, the IC50 is 87.6 µM (inactive). This compound gave a 50% inhibitory concentration (IC50) under setting [1] of over 100 µM. For the same compound, the IC90 under setting [2] was over 100 µM. This compound also returned an IC90 under setting [3] of over 100 µM.
`COCCOC(=O)c1c(C)oc2ccc(OCc3cc(C(=O)OC)oc3C)cc12`: the IC50 was > 100 µM (inactive). The IC50 under setting [1] is over 100 µM. The same compound came in with an IC90 under setting [2] of over 100 µM. The same compound had an IC90 under setting [3] of over 100 µM.
As for `O=C(Nc1ccc2oc(-c3ccc(Cl)c(Cl)c3)nc2c1)c1ncn[nH]1`, the IC50 is 61.9 µM (inactive). The compound also had a half-maximal inhibitory concentration (IC50) under setting [1] of 79.8 µM. The compound also displayed an IC90 under setting [2] of over 100 µM. Further, under setting [3], the concentration for an effect of 90% (IC90) is over 100 µM.
With `CC12CCC(C/C1=N\N=C1\NC(=O)/C(=C\c3cccc(Br)c3)S1)C2(C)C` (stereo not drawn), the half-inhibitory concentration (IC50) was 9.74 µM. For the same compound, under setting [1], the IC50 was found to be 26.6 µM. Further, the IC90 under setting [2] was determined as 37.3 µM. For the same compound, the IC90 under setting [3] turned out to be 37.7 µM.
For `COc1ccccc1CNC(=O)c1cc2c(C)nn(Cc3ccc(F)cc3)c2s1`, the IC50 is > 100 µM (inactive). Further, the 50% inhibitory concentration (IC50) under setting [1] is over 100 µM. The concentration for an effect of 90% (IC90) under setting [2] was over 100 µM. Further, the IC90 under setting [3] is over 100 µM.
As for `CC(=O)NC(=S)Nc1ccc(NC(=O)c2cccnc2Cl)cc1`, the IC50 was > 100 µM (inactive). Under setting [1], this compound yielded a 50% inhibitory concentration (IC50) of over 100 µM. The compound further displayed an IC90 under setting [2] of over 100 µM. This compound registered a concentration for an effect of 90% (IC90) under setting [3] of over 100 µM.
As to `C=CCNC(=S)NC(=O)c1csc([N+](=O)[O-])c1`, the IC50 is 27.8 µM (inactive). In addition, the 50% inhibitory concentration (IC50) under setting [1] was 49 µM. The compound also yielded an IC90 under setting [2] of over 50 µM. Also, the IC90 under setting [3] is over 100 µM.
On to `Cc1[nH]n(-c2ccccc2)c(=O)c1/C=N/NC(=O)c1ccoc1C`, for which the half-inhibitory concentration (IC50) was 0.655 µM. Further, under setting [1], the IC50 is over 100 µM. This compound gave a 90% effect concentration (IC90) under setting [2] of over 100 µM. For the same compound, the IC90 under setting [3] is 3.01 µM.
As to `COc1cccc(-c2ccc(-c3noc(-c4ccccc4F)n3)c(OC)n2)c1`, the 50% inhibitory concentration (IC50) was 9.65 µM. The compound also showed an IC50 under setting [1] of over 100 µM. The concentration for an effect of 90% (IC90) under setting [2] is over 100 µM. This compound also had an IC90 under setting [3] of over 12.5 µM.
As to `CCCCCCC(=O)Nc1nc(C)c(-c2csc(Nc3cc(Cl)ccc3OC)n2)s1`, the IC50 is 42.3 µM (inactive). Under setting [1], this compound gave an IC50 of 51.1 µM. Under setting [2], the IC90 is over 100 µM. The same compound displayed an IC90 under setting [3] of over 100 µM.
For the compound `O=C(CN(Cc1ccco1)C(=O)c1cccc(Cl)c1)Nc1c(Cl)cc(Cl)cc1Cl`, the IC50 was 48.3 µM (inactive). This compound also yielded an IC50 under setting [1] of over 100 µM. The same compound had an IC90 under setting [2] of over 100 µM. Under setting [3], this compound displayed an IC90 of over 100 µM.
Consider `Clc1ccc(/C=N/NC2=Nc3cccc4cccc2c34)cc1`, for which the IC50 is > 100 µM (inactive). This compound also showed a 50% inhibitory concentration (IC50) under setting [1] of over 100 µM. This compound had an IC90 under setting [2] of over 100 µM. The compound further gave an IC90 under setting [3] of over 100 µM.

The record behind these values is PubChem BioAssay AID434987 (Southern Research Specialized Biocontainment Screening …, 2010).
